According to ChEMBL document CHEMBL4715780, “Biological evaluation of tetracationic compounds based on two 1,4-diazabicyclo[2.2.2]octane moieties connected by different linkers” (Bioorg Med Chem, 2016):

What was measured:
Assay type in all cases: functional
Proteus vulgaris [1] = experiment: Antibacterial activity against Proteus vulgaris ATCC 6380 assessed as concentration required to inhibit visible growth by CLSI protocol based serial microdilution method
Staphylococcus aureus [2] = experiment: Antibacterial activity against methicillin-resistant Staphylococcus aureus CEMTC 675 assessed as bacterial growth inhibition by CLSI protocol based serial microdilution method
Staphylococcus aureus [3] = experiment: Antibacterial activity against methicillin-resistant Staphylococcus aureus CEMTC 1733 assessed as concentration required to inhibit visible growth by CLSI protocol based serial microdilution method
Staphylococcus aureus [4] = experiment: Antibacterial activity against methicillin-resistant Staphylococcus aureus CEMTC 707 assessed as bacterial growth inhibition by CLSI protocol based serial microdilution method
Staphylococcus aureus [5] = experiment: Antibacterial activity against methicillin-resistant Staphylococcus aureus CEMTC 1732 assessed as bacterial growth inhibition by CLSI protocol based serial microdilution method
Staphylococcus aureus [6] = experiment: Antibacterial activity against […] Staphylococcus aureus ATCC 25923 assessed as concentration required to inhibit visible growth by CLSI protocol based serial microdilution method
Staphylococcus aureus [7] = experiment: Antibacterial activity against […] Staphylococcus aureus ATCC 25923 assessed as bacterial growth inhibition by CLSI protocol based serial microdilution method
Staphylococcus aureus [8] = experiment: Antibacterial activity against methicillin-resistant Staphylococcus aureus CEMTC 1732 assessed as concentration required to inhibit visible growth by CLSI protocol based serial microdilution method
Staphylococcus aureus [9] = experiment: Antibacterial activity against methicillin-resistant Staphylococcus aureus CEMTC 1695 assessed as concentration required to inhibit visible growth by CLSI protocol based serial microdilution method
Staphylococcus aureus [10] = experiment: Antibacterial activity against methicillin-resistant Staphylococcus aureus CEMTC 675 assessed as concentration required to inhibit visible growth by CLSI protocol based serial microdilution method
Staphylococcus aureus [11] = experiment: Antibacterial activity against methicillin-resistant Staphylococcus aureus CEMTC 1850 assessed as bacterial growth inhibition by CLSI protocol based serial microdilution method
Proteus vulgaris [12] = experiment: Antibacterial activity against Proteus vulgaris ATCC 6380 assessed as bacterial growth inhibition by CLSI protocol based serial microdilution method
Citrobacter freundii [13] = experiment: Antibacterial activity against Citrobacter freundii ATCC 8090 assessed as bacterial growth inhibition by CLSI protocol based serial microdilution method
Staphylococcus aureus [14] = experiment: Antibacterial activity against methicillin-resistant Staphylococcus aureus CEMTC 1733 assessed as bacterial growth inhibition by CLSI protocol based serial microdilution method
Staphylococcus aureus [15] = experiment: Antibacterial activity against methicillin-resistant Staphylococcus aureus CEMTC 1695 assessed as bacterial growth inhibition by CLSI protocol based serial microdilution method
Staphylococcus aureus [16] = experiment: Antibacterial activity against methicillin-resistant Staphylococcus aureus CEMTC 1850 assessed as concentration required to inhibit visible growth by CLSI protocol based serial microdilution method
Escherichia coli [17] = experiment: Antibacterial activity against Escherichia coli ATCC 25922 assessed as bacterial growth inhibition by CLSI protocol based serial microdilution method
Salmonella typhimurium [18] = experiment: Antibacterial activity against Salmonella enterica ATCC 14028 assessed as bacterial growth inhibition by CLSI protocol based serial microdilution method; conditions: Salmonella enterica subsp. enterica serovar Typhimurium
Pseudomonas aeruginosa [19] = experiment: Antibacterial activity against Pseudomonas aeruginosa ATCC 9027 assessed as bacterial growth inhibition by CLSI protocol based serial microdilution method
Staphylococcus aureus [20] = experiment: Antibacterial activity against methicillin-resistant Staphylococcus aureus CEMTC 707 assessed as concentration required to inhibit visible growth by CLSI protocol based serial microdilution method
Enterococcus faecalis [21] = experiment: Antibacterial activity against Enterococcus faecalis ATCC 51299 assessed as concentration required to inhibit visible growth by CLSI protocol based serial microdilution method
Salmonella typhimurium [22] = experiment: Antibacterial activity against Salmonella enterica ATCC 14028 assessed as concentration required to inhibit visible growth by CLSI protocol based serial microdilution method; conditions: Salmonella enterica subsp. enterica serovar Typhimurium
Pseudomonas aeruginosa [23] = experiment: Antibacterial activity against Pseudomonas aeruginosa ATCC 9027 assessed as concentration required to inhibit visible growth by CLSI protocol based serial microdilution method
Enterococcus faecalis [24] = experiment: Antibacterial activity against Enterococcus faecalis ATCC 51299 assessed as bacterial growth inhibition by CLSI protocol based serial microdilution method
Citrobacter freundii [25] = experiment: Antibacterial activity against Citrobacter freundii ATCC 8090 assessed as concentration required to inhibit visible growth by CLSI protocol based serial microdilution method
Escherichia coli [26] = experiment: Antibacterial activity against Escherichia coli ATCC 25922 assessed as concentration required to inhibit visible growth by CLSI protocol based serial microdilution method

GENTAMICIN gave an MBC (Proteus vulgaris [1]) of 1.6 µg/mL, an MIC (Staphylococcus aureus [2]) greater than 100 µg/mL and an MBC (Staphylococcus aureus [3]) of 1 µg/mL. It also gave an MIC (Staphylococcus aureus [4]) of 1 µg/mL, an MIC (Staphylococcus aureus [5]) greater than 100 µg/mL and an MBC (Staphylococcus aureus [6]) of 100 µg/mL. The MIC (Staphylococcus aureus [7]) was 50 µg/mL, the MBC (Staphylococcus aureus [8]) was greater than 100 µg/mL and the MBC (Staphylococcus aureus [9]) was greater than 100 µg/mL. It also gave an MBC (Staphylococcus aureus [10]) greater than 100 µg/mL, an MIC (Staphylococcus aureus [11]) of 10 µg/mL and an MIC (Proteus vulgaris [12]) of 0.8 µg/mL. It also gave an MIC (Citrobacter freundii [13]) of 0.4 µg/mL, an MIC (Staphylococcus aureus [14]) of 1 µg/mL and an MIC (Staphylococcus aureus [15]) greater than 100 µg/mL. It also gave an MBC (Staphylococcus aureus [16]) greater than 100 µg/mL, an MIC (Escherichia coli [17]) of 50 µg/mL and an MIC (Salmonella typhimurium [18]) of 0.8 µg/mL. It also gave an MIC (Pseudomonas aeruginosa [19]) greater than 400 µg/mL, an MBC (Staphylococcus aureus [20]) of 1 µg/mL and an MBC (Enterococcus faecalis [21]) of 100 µg/mL. The MBC (Salmonella typhimurium [22]) was 1.6 µg/mL, the MBC (Pseudomonas aeruginosa [23]) was greater than 400 µg/mL and the MIC (Enterococcus faecalis [24]) was 50 µg/mL. It also gave an MBC (Citrobacter freundii [25]) of 0.8 µg/mL and an MBC (Escherichia coli [26]) of 100 µg/mL.
